Measurements taken from ChEMBL document CHEMBL5291721, “A preclinical secondary pharmacology resource illuminates target-adverse drug reaction associations of marketed drugs” (Nat Commun, 2023).

What was measured:
[1] = target: Voltage-dependent N-type calcium channel subunit alpha-1B (Rattus norvegicus, UniProt Q02294); assay type: functional
[2] = target: Neurotensin receptor type 1 (Homo sapiens, UniProt P30989)
[3] = target: T1, Alpha-2A adrenergic receptor (Homo sapiens, UniProt P08913)
T1 sequence (P08913 whole entry): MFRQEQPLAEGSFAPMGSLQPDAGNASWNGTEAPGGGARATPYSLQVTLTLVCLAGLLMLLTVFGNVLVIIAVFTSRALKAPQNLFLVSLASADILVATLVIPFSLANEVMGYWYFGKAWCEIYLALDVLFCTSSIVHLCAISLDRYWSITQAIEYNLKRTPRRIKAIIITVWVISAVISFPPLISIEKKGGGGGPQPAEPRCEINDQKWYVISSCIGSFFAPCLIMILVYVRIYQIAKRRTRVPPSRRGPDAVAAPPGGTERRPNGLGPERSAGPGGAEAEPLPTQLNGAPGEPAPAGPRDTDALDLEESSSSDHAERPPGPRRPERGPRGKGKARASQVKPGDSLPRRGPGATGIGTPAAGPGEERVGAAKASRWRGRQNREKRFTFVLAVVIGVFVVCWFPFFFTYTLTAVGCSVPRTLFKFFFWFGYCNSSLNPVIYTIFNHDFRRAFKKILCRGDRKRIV

[4] = target: Delta-type opioid receptor (Homo sapiens, UniProt P41143)
Delta-type opioid receptor, sequence (P41143 whole entry): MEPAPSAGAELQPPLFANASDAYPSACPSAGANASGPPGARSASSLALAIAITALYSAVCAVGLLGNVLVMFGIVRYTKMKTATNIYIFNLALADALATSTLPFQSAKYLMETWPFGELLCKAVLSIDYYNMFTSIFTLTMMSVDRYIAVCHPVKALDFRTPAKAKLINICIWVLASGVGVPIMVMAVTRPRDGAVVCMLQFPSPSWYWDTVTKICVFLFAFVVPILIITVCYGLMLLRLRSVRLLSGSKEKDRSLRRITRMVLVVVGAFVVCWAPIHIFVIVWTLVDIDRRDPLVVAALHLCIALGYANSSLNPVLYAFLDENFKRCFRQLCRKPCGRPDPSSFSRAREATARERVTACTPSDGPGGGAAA

[5] = target: T2, Gastric inhibitory polypeptide receptor (Homo sapiens, UniProt P48546)
T2 sequence (P48546 whole entry): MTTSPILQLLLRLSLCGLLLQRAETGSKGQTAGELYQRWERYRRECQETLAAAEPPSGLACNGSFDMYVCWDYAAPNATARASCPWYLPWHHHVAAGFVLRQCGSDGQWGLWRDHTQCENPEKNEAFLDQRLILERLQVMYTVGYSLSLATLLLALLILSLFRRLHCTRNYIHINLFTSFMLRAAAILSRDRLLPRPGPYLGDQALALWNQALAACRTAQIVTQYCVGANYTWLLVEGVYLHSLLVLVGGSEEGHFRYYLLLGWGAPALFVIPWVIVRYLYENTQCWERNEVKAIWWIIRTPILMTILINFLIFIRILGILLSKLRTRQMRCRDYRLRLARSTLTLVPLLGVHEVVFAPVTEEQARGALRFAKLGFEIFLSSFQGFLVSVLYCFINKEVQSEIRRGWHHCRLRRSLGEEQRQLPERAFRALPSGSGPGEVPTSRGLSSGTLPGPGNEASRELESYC

[6] = target: T3, Corticotropin-releasing factor receptor 2 (Homo sapiens, UniProt Q13324)
T3 sequence (Q13324 whole entry): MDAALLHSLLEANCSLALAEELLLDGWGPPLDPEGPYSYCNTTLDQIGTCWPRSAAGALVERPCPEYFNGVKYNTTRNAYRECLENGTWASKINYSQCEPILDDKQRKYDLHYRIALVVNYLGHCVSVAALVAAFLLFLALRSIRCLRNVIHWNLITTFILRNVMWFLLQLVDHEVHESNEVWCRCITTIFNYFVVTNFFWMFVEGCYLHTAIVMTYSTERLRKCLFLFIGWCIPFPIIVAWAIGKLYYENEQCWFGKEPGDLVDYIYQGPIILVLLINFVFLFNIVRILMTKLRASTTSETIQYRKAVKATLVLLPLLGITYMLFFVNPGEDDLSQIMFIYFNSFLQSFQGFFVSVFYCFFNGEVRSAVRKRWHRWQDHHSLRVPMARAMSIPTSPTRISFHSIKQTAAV

[7] = target: Muscarinic acetylcholine receptor M3 (Homo sapiens, UniProt P20309)
Muscarinic acetylcholine receptor M3, sequence (P20309 whole entry): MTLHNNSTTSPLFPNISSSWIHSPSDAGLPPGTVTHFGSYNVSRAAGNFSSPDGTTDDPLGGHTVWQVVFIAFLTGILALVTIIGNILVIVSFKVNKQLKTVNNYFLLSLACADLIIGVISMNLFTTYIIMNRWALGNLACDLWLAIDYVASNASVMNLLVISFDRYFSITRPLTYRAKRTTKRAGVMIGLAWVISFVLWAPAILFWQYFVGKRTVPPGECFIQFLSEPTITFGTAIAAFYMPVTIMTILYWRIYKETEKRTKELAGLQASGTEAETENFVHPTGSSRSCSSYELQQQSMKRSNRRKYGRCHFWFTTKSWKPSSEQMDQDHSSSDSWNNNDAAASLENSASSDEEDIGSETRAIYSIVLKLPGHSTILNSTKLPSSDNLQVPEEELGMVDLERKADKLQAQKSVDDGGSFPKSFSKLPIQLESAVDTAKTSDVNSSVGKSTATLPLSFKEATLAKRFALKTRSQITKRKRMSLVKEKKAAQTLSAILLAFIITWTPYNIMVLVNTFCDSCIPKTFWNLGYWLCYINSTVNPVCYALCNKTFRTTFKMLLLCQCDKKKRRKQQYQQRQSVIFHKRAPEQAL

[8] = target: T4, Alpha-2B adrenergic receptor (Homo sapiens, UniProt P18089)
T4 sequence (P18089 whole entry): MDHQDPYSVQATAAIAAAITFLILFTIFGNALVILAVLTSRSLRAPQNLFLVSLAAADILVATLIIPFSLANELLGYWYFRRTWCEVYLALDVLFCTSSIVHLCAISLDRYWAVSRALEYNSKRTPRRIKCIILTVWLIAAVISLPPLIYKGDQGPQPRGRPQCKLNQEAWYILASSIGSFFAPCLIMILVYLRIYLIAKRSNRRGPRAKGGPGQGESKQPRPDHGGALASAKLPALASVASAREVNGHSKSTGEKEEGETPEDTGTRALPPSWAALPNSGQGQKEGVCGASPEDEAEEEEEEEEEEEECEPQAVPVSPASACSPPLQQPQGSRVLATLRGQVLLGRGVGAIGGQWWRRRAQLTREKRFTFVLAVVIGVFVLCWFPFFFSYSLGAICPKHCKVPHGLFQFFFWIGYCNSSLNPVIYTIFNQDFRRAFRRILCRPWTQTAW

[9] = target: T5, 5-hydroxytryptamine receptor 2A (Homo sapiens, UniProt P28223); assay type: functional, cell-based
T5 sequence (P28223 whole entry): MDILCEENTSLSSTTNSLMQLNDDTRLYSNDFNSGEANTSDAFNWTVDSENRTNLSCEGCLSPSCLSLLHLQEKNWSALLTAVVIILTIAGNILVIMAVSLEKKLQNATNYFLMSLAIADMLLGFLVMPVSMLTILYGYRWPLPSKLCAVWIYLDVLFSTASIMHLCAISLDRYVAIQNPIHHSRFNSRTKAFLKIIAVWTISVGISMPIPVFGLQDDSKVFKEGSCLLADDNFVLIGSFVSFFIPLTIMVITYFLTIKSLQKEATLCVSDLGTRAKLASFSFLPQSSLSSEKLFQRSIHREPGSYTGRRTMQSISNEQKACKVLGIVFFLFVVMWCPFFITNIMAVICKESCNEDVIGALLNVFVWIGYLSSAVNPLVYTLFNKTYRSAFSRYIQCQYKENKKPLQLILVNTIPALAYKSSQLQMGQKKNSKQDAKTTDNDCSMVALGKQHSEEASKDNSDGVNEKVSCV

[10] = target: T5, 5-hydroxytryptamine receptor 2A; assay type: functional, cell-based; remark: listed apart in the source
Further: assay procedure not described here.

Neurotensin receptor type 1, sequence (P30989 whole entry): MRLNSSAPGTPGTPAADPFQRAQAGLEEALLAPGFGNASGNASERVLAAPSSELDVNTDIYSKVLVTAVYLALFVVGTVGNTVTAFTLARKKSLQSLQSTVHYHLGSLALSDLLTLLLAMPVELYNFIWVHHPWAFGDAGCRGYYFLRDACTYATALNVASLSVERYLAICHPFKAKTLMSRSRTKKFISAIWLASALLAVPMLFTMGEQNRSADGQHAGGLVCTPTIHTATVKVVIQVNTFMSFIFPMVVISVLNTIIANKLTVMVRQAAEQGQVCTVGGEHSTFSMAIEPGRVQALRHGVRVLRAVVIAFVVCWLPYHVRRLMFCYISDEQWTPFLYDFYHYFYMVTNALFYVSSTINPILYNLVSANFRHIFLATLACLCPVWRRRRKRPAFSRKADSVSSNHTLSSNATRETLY
Voltage-dependent N-type calcium channel subunit alpha-1B, sequence (Q02294 whole entry): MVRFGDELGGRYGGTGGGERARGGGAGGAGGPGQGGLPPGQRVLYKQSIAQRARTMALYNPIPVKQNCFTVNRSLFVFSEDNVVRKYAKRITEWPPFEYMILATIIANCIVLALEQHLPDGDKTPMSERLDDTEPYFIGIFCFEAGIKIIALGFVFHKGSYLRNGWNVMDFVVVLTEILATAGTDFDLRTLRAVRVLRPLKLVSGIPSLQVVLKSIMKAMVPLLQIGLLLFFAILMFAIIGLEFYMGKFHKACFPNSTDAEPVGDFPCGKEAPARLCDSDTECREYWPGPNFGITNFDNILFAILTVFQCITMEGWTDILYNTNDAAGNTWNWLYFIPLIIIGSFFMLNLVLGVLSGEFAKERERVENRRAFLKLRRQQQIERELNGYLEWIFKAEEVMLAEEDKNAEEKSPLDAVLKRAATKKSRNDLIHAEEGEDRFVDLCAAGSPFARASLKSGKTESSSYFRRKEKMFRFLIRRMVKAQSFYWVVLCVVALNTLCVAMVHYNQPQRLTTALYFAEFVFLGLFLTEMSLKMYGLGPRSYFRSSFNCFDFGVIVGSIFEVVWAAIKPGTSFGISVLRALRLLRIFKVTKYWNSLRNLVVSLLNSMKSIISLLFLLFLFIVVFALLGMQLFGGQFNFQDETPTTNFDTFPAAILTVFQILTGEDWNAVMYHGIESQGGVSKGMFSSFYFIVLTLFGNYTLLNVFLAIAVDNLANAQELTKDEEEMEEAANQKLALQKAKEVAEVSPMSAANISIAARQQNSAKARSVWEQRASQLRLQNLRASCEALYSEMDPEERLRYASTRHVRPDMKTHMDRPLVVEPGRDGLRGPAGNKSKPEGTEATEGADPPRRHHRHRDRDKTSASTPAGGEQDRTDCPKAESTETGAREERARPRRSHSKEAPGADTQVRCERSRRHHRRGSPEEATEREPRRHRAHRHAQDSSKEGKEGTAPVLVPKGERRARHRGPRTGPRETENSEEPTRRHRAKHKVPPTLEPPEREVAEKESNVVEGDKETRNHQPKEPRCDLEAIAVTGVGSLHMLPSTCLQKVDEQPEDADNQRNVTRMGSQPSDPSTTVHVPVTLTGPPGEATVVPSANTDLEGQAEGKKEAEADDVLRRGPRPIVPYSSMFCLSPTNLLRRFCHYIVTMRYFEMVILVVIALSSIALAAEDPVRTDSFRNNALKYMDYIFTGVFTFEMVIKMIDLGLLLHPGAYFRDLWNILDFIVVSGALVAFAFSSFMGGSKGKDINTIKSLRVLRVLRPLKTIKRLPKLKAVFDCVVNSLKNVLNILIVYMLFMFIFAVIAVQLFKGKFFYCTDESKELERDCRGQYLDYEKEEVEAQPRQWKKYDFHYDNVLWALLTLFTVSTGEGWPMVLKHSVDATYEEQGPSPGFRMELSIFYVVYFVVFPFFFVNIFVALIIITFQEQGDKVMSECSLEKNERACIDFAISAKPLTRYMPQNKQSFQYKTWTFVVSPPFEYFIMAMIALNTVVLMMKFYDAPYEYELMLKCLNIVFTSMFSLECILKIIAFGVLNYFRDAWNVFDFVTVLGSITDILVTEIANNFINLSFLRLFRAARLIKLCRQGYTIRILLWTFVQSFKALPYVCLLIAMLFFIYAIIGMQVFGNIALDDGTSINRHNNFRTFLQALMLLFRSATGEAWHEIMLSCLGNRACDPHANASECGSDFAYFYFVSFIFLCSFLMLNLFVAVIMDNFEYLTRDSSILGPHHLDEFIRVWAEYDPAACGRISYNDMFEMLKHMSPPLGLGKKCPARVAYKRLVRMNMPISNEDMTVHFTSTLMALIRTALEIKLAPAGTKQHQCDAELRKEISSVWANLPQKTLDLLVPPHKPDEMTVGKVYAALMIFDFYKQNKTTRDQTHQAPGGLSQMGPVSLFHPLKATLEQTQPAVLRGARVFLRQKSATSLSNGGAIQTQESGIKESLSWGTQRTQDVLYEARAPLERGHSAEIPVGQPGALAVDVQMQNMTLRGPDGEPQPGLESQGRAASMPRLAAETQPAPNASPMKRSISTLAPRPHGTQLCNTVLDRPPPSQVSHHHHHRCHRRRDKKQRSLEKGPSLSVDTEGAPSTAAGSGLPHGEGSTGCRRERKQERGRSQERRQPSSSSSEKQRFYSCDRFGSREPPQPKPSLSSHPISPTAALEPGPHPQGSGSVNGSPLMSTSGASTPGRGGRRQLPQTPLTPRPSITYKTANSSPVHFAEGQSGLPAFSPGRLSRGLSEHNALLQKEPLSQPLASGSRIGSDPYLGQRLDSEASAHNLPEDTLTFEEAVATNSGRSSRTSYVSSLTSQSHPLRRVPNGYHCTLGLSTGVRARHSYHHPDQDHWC

Compound | AC50 [1] [µM] | AC50 [2] [µM] | AC50 [3] [µM] | AC50 [4] [µM] | AC50 [5] [µM] | AC50 [6] [µM] | AC50 [7] [µM] | AC50 [8] [µM] | AC50 [9] [µM] | AC50 [10] [µM]
COc1ccccc1Oc1c(NS(=O)(=O)c2ccc(C(C)(C)C)cc2)nc(-c2ncccn2)nc1OCCO [BOSENTAN] | > 10 | > 30 | > 10 | > 30 | > 30 | > 30 | > 30 | > 10 |  | 
Nc1ccc(S(=O)(=O)Nc2nccs2)cc1 [SULFATHIAZOLE] | > 10 | > 30 | > 10 | > 30 | > 30 | > 30 |  |  |  | 
COc1ccc(CC2c3cc(OC)c(OC)cc3CC[N+]2(C)CCC(=O)OCCCCCOC(=O)CC[N+]2(C)CCc3cc(OC)c(OC)cc3C2Cc2ccc(OC)c(OC)c2)cc1OC (stereo not drawn) |  |  | > 30 | > 30 |  |  | > 30 | > 30 | > 30 | > 30
C[C@H]1c2cccc(O)c2C(=O)C2=C(O)[C@]3(O)C(=O)C(C(N)=O)=C(O)[C@@H](N(C)C)[C@@H]3[C@@H](O)[C@@H]21 [DOXYCYCLINE] | > 10 | > 30 | > 10 | > 30 | > 30 | > 30 |  |  |  | 
Cc1onc(-c2ccccc2)c1-c1ccc(S(N)(=O)=O)cc1 [VALDECOXIB] | > 10 | > 30 | > 10 | > 30 | > 30 | > 30 |  |  |  | 
CCN(CC)CCNC(=O)c1c(C)[nH]c(/C=C2\C(=O)Nc3ccc(F)cc32)c1C [SUNITINIB] |  |  | 9.47 | 1.7 |  |  |  | 4.37 |  | 
CO[C@H]1/C=C/O[C@@]2(C)Oc3c(C)c(O)c4c(O)c(c(/C=N/N5CCN(C)CC5)c(O)c4c3C2=O)NC(=O)/C(C)=C\C=C\[C@H](C)[C@H](O)[C@@H](C)[C@@H](O)[C@@H](C)[C@H](OC(C)=O)[C@@H]1C [RIFAMPIN] | > 10 | > 30 | > 10 | 17 | > 30 | > 30 |  |  |  | 
CCCN(CCC)C(=O)Cc1c(-c2ccc(Cl)cc2)nc2ccc(Cl)cn12 [ALPIDEM] | > 10 |  | > 10 | > 30 |  |  | > 30 | > 30 |  | 
CCCC(CCC)C(=O)O [VALPROIC ACID] | > 10 | > 30 | > 10 | > 30 | > 30 | > 30 |  |  |  | 
COc1cc2nc(N3CCN(C(=O)C4CCCO4)CC3)nc(N)c2cc1OC (stereo not drawn) [TERAZOSIN] | > 10 | > 30 | 7.27 | > 30 | > 30 | > 30 |  |  |  | 
CN(C)CCc1c[nH]c2ccc(Cn3cncn3)cc12 [RIZATRIPTAN] | > 10 | > 30 | > 10 | > 30 | > 30 | > 30 | > 30 | > 30 | 7.75 | 
COc1ccccc1OCCNCC(O)COc1cccc2[nH]c3ccccc3c12 (stereo not drawn) [CARVEDILOL] | > 10 | > 30 | 0.189 | > 10 | > 30 | > 30 |  |  |  | 
CC(C)Cc1ccc(C(C)C(=O)O)cc1 (stereo not drawn) [IBUPROFEN] | > 10 | > 30 | > 10 | > 30 | > 30 | > 30 |  |  |  | 
CC(C)c1nc(N(C)S(C)(=O)=O)nc(-c2ccc(F)cc2)c1/C=C/[C@@H](O)C[C@@H](O)CC(=O)O [ROSUVASTATIN] |  |  |  | > 30 |  |  | > 30 | > 30 | > 30 | > 30
CC(C)N(CCC(C(N)=O)(c1ccccc1)c1ccccn1)C(C)C (stereo not drawn) [DISOPYRAMIDE] | > 10 | > 30 |  | > 30 | > 30 | > 30 | > 30 | > 10 |  | 
N[C@@H](CC(=O)N1CCn2c(nnc2C(F)(F)F)C1)Cc1cc(F)c(F)cc1F [SITAGLIPTIN] | > 10 | > 10 | > 10 | > 30 |  |  | > 30 | > 30 |  | 
C=CC[C@@H]1/C=C(\C)C[C@H](C)C[C@H](OC)[C@H]2O[C@@](O)(C(=O)C(=O)N3CCCC[C@H]3C(=O)O[C@H](/C(C)=C/[C@@H]3CC[C@@H](O)[C@H](OC)C3)[C@H](C)[C@@H](O)CC1=O)[C@H](C)C[C@@H]2OC [TACROLIMUS ANHYDROUS] | > 10 | > 30 | > 10 | > 30 | > 30 | > 30 |  |  |  | 
